We go through 1 compound from patent US9446127B2, “Compositions including androgen receptor degradation (ARD) enhancers and methods of prophylactic or therapeutic treatment of skin disorders and hair loss” (AndroScience Corporation, priority 2007, dated 2016).

Experiment [1] relates to PPARγ, PPARβ, RXRα, ERα and Erβ, ERK, HSP70 and actin. As to the kind of experiment: Specificity Western blot in T47D cell lysates, other receptor proteins. It counts as cell-based, human. The note with it: T47D cell lysates (FIG. 6). The method, then:
Human prostate cancer LNCaP cells and T47D cells were plated at a density of 7×10^5 cells per 60 millimeter tissue culture dish in […] medium containing 10% FBS. The medium was changed to RPMI or DME medium containing 10% charcoal-stripped serum 24 hours later to deplete cellular androgens or estrogens. After another 24 hours, treatment with the test compounds began. The test dose of ASC-J9 was 1, and 5 and micromolar. LNCap cells also received dihydrotestosterone (DHT) (3 nanomolar). Control cells received a corresponding amount of the vehicle, dimethylsulfoxide (DMSO) (<0.04%) for an equivalent exposure time. Cells were incubated with ASC-J9 for 24 hours, and were lysed in 250 microliters of 1×SDS/PAGE loading buffer. Approximately 40 micrograms of total cellular protein was loaded in each lane of a pre-cast gel (NuPAGE, Invitrogen). Protein separation and transfer were performed following the manufacturer's instructions.
In general terms: A western blot detects proteins with antibodies after separation by electrophoresis.

Experiment [2] concerns the target T1, wild type androgen receptor (GFPAR) (Homo sapiens, UniProt P10275).
T1 construct: GFP (green fluorescent protein); expressed in transfected cells; host or cells: COS-1 (monkey kidney)
T1 sequence (P10275 1-920): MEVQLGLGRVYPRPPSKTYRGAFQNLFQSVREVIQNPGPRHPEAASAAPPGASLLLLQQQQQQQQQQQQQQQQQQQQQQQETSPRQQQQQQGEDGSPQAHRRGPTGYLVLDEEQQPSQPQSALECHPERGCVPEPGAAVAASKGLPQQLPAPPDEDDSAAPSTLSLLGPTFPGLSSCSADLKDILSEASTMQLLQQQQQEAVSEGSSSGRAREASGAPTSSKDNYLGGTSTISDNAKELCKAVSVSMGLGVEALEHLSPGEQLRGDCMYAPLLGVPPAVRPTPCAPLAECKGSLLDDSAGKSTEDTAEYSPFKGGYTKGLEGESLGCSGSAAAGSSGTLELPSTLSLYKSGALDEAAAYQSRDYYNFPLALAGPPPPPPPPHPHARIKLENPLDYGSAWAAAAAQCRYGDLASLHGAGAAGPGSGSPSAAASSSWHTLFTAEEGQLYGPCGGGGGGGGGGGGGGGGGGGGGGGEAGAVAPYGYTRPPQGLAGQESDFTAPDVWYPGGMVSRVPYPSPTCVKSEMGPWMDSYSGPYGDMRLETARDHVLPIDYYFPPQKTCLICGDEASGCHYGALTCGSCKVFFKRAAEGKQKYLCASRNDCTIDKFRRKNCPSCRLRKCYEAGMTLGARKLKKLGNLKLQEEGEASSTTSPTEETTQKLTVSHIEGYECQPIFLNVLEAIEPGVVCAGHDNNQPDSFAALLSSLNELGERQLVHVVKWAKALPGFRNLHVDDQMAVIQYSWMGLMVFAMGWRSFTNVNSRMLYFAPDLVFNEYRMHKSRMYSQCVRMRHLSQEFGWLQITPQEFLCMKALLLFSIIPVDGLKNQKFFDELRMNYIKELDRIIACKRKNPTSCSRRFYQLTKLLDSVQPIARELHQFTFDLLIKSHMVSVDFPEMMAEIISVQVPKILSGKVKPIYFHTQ
As to the kind of experiment: Fluorescence microscopy of COS-1 cells transfected with GFPAR. Type of experiment: cell-based. The note with it: COS-1, 5 micromolar. On the procedure: Monkey kidney COS-1 cells were plated at a density of 3×10^4 cells per 0.5-milliliter volume onto alcohol-cleaned and sterilized cover slips placed in 35-millimeter suspension culture dishes containing Dulbecco's modified Eagle's (DME) medium containing 10% FBS. The cells were transfected with plasmids containing the wild type AR (GFPAR) or poly Q49 (plasmid GFPARQ49) mutant androgen receptor and green fluorescent protein (GFP) as a reporter. For each coverslip, 12.3 microliters SuperFect was added to 3.075 micrograms plasmid in 102.5 microliters DME medium (to give a 1:4 ratio of DNA to SuperFect reagent); the mixture was vortexed briefly, and the complex allowed to form over 15 minutes. Each mixture then received 897 microliters CD/DME and was mixed gently. The resulting 1-milliliter volumes were added to the dishes containing the coverslips (final plasmid concentration was […] per dish). Cells were allowed to incubate with the transfection solution for 5 hours, then the medium was changed to fresh 1.5 milliliters CD/DME medium with either vehicle (DMSO) only added or ASC-J9 (final concentration 5 micromolar). […] The coverslips were air-dried, mounted on slides with a glycerol-based mounting agent, and stored at 4 degrees Celsius if necessary prior to observation with fluorescence microscopy. […]

In the case of `COc1ccc(C=CC(=O)C=C(O)C=Cc2ccc(OC)c(OC)c2)cc1OC` [ASC-J9, 5-hydroxy-1,7-bis(3,4-dimethoxyphenyl)-1,4,6-heptatrien-3-one], the “expression of other receptor proteins” value in experiment [1] is “not affected”. Besides, in experiment [2], the “GFPAR fluorescence (expression of wild type AR)” value was “reduces (or degrades) the expression of AR”.
